This is an account of results in patent US4599325A, “Substituted tyrosyl alanine dipeptide amides” (G. D. Searle & Co., priority 1985, dated 1986).

Where a name gives a salt, the structure may show the parent alone. Read-outs that look alike come from different tables or passages of the source.

One assay has as its target T1, mu opiate receptor (Rattus norvegicus, UniProt P33535).
T1 construct: The receptor membrane homogenate was prepared using rat brain; from tissue; host or cells: rat brain membrane homogenate
Kind of assay: Mu opiate receptor binding (3H-Dihydromorphine). The note with it: Table 2; 3H-Dihydromorphine 0.2 nM, rat brain. The method, then: Several subtypes of opiate receptors have been identified. These multiple receptors are thought to mediate the different effects of opiates, e.g., mu receptors are believed to mediate the analgesic activity of opiates. Therefore, the relative affinities of the test compounds for the mu and the delta opiate receptors was determined. The receptor membrane homogenate was prepared using rat brain as previously described in this document. The binding assays for the mu and delta receptors were performed using a modification of the method described by Chang and Cuatrecasas. K.-J. Chang and P. Cuatrecasas. Multiple Opiate receptors: enkephalins and morphine bind to receptors of different specificity, J. Biol. Chem. 254, 2610-2618 (1979). The incubation mixtures contained 0.75 ml of homogenate (1 mg protein/ml) and 0.05 ml of ^3 H-Dihydromorphine (final concentration of 0.2 nM) or 0.05 ml ^3 H-(D)-Ala^2 -(D)-Leu^5 enkephalin (final concentration of 0.2 nM). Both the displacer, naloxone, and the test compounds were added in 0.1 ml volumes. Finally, […] tris-HCl buffer (pH 7.4 at 25° C.) was added to bring the total volume up to 1 ml. The mixture were then incubated 60 minutes at 25° C. before filtering.
The IC50 values, i.e., the concentration of the test compound that inhibited ligand specific binding to its receptor by 50%, were calculated using log-probit analysis, D. J. Finney. […]

In another assay the test system is mice. The experiment in a line: Combined tail flick and hot plate tests: hot plate. The note with it: for ED50: Mus musculus, combined tail flick/hot plate; for activity in hot plate test of combined tests: oral and subcutaneous, prior art at doses as great as 100 mg/kg p.o. and 50 mg/kg s.c. Type of assay: in vivo, mouse. Here is the method:
Male albino inbred mice supplied by Charles River (CD-1/HAM/1LR) weighing between 20 and 30 grams were used. Analgesia was first measured using the tail flick test in which a high intensity beam of light was focused on the blackened tail. The interval of time between onset of the light and reflex removal of the tail was defined as the tail flick latency. The average of two successive determinations was recorded. Following tail flick determination, the animals were immediately placed on a 55° C. copper hot plate to which they were restricted by an inverted 600 ml glass beaker. Hot plate latency was defined as the interval between placement on the hot plate and a behavioral response of either a jump or a hindpaw lick. One determination was recorded. Mice not responding within 4.0 seconds on the tail flick and 20.0 seconds on the hot plate were discarded from the study. The tail flick test and the hot plate test were stopped after 12.0 and 40 seconds, respectively, had elapsed to prevent tissue damage. After determination of pre-injection baseline latencies, the test compound was dissolved in distilled water and administered either orally or subcutaneously (0.1 ml/10 gram body weight). Tail flick and hot plate latencies were measured 10, 30, 60 and 90 minutes after injection. One-way analyses of variance were used to detect any significant increase in tail flick and hot plate latencies (indicative of analgesia) as compared to latencies prior to drug adminstration, as well as to establish the dose-dependence of any effect. A linear regression method (least squares) was used to determine the line of best fit. The ED50 dose was determined to be that dose of test compound that produced one-half the maximum measurable increase in latency. This corresponded to a post-drug tail flick latency of 7.5 seconds and hot plate latency of 25 seconds. G. Keppel: Design and analysis: a researcher's handbook, New Jersey, Prentice-Hall, 1973.
(In hot-plate and tail-flick tests a longer latency is read as antinociception.)

T1 sequence (P33535 whole entry): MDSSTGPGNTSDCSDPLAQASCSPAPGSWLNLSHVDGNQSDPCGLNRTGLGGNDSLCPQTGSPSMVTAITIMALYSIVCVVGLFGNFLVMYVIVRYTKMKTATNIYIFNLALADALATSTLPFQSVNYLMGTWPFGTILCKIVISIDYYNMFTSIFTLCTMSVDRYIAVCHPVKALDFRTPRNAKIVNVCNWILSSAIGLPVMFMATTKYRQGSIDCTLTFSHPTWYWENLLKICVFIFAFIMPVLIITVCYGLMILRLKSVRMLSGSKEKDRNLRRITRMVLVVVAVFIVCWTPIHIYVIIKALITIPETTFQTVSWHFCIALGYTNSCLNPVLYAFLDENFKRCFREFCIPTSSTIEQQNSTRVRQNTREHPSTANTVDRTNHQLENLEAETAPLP

In the case of `Cc1cc(O)cc(C)c1C[C@H](N)C(=O)N[C@H](C)C(=O)NCCCc1ccccc1` [Example 5, 2,6-dimethyltyrosyl-N-(3-phenylpropyl)-D-alaninamide, hydrochloride], the 50% inhibitory concentration (IC50) (in general, the midpoint of a concentration-inhibition curve) on mu opiate receptor is 0.1 nM. Also, the ED50 (in general, the dose at which the effect has come halfway, by size or by number of responders) in the assay on mice (po, p.o., read-out: Hot Plate (ED50) p.o.) was found to be 52 mg/kg; in the assay on mice (sc, s.c., read-out: Hot Plate (ED50) s.c.) it was 9 mg/kg. In addition, in the assay on mice, the “activity in hot plate test of combined tests” value is “active”.
At mu opiate receptor, “tyrosine-D-alanine-phenylpropylamide [Prior Art, reference compound]” registered an IC50 of 8.8 nM. Also, the “Hot Plate, activity at stated dose s.c.” value with mice (50 mg/kg s.c.) is given as “Inactive”. In addition, in the assay on mice (100 mg/kg p.o.), the “Hot Plate, activity at stated dose p.o.” value is listed as “Inactive”. The “activity in hot plate test of combined tests” value with mice is reported as “not active”.
